# US12472178B2, “Amorphous solid dispersions” (INTRA-CELLULAR THERAPIES, INC., priority 2016, dated 2025)
# Key:
# [1] = amorphous form compared with the crystalline form; cited from earlier work
# 5-HT2C = target: T1, 5-HT2C (Homo sapiens, UniProt P28335); details: cited from earlier work
# T1 sequence (P28335 33-458): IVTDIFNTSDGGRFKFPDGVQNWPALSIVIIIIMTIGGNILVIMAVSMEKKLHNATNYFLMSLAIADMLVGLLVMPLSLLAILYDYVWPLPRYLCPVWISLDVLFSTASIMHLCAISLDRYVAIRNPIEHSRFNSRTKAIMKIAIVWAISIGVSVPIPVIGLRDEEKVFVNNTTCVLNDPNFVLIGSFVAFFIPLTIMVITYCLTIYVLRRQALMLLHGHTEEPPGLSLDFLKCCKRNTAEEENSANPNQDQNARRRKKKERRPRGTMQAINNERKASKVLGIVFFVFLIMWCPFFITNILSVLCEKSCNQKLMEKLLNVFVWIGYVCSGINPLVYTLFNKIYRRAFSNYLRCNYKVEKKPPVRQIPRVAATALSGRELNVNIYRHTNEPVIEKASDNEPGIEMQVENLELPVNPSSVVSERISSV
# H1 histaminergic = H1 histaminergic (Homo sapiens, UniProt P35367); details: cited from earlier work
# Chain of H1 histaminergic (P35367 whole entry): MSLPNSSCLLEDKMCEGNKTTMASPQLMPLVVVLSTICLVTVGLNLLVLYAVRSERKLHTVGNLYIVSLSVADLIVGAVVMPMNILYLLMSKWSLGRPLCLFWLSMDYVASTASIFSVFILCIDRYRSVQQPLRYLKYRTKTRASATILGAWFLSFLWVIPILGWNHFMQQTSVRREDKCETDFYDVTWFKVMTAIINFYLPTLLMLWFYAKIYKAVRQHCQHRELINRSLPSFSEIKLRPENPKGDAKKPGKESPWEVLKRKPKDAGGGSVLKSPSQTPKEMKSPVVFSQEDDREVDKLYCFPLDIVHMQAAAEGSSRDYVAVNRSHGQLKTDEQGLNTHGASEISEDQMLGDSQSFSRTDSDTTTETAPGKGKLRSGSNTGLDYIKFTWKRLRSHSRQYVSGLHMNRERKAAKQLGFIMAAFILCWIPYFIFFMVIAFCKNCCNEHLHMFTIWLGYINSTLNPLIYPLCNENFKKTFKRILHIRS
# [2] = Preliminary screen of lyophilized dispersions by XRPD and appearance; assay type: physicochemical; details: ITI-007 free base dispersions, as generated
# Description: X-ray powder diffraction (XRPD): The X-ray powder diffraction studies are performed using a PANalytical X′Pert PRO MPD diffractometer using an incident beam of Cu radiation produced using an Optix long, fine-focus source. An elliptically graded multilayer mirror is used to focus Cu Kα X-ray radiation through the specimen and onto the detector. Prior to analysis, a silicon specimen is analyzed to verify the observed position of the Si (111) peak (consistent with the NIST-certified position, NIST SM 640e). A specimen of the sample is sandwiched between 3-micron thick films and analyzed in transmission geometry. A beam-stop, short antiscatter extension, and antiscatter knife edge is used to minimize the background generated by the air. Soller slits for the incident and diffracted beams are used to minimize broadening from axial divergence. Diffraction patterns are collected using a scanning position-sensitive detector (X′Celerator) located 240 mm from the specimen. Data Collector software v. 2.2b is used for analysis.
# Solutions are initially frozen in a dry ice/acetone bath, and then placed in a freeze dryer with the shelf pre-cooled to −75° C. […]
# Solid dispersions obtained from Example 1 are first evaluated by XRPD to determine if they are amorphous. […]
# The same excipients are evaluated as described in Example 1.
# [3] = Glass transition temperature by mDSC; assay type: physicochemical; details: ITI-007 free base dispersions; Yes/No
# muscarinic receptors = details: cited from earlier work
# [4] = free base form; cited from earlier work
# [5] = Stability of solutions in 2,2,2-trifluoroethanol; assay type: physicochemical; details: solutions in TFE
smiles,measurement,setting,value
CO/N=C(\C(=O)N[C@@H]1C(=O)N2C(C(=O)OC(C)OC(C)=O)=C(COC(N)=O)CS[C@H]12)c1ccco1 (some centres unmarked) [Cefuroxime axetil],bioavailability,[1],higher bioavailability
"CN1CCN2c3c(cccc31)[C@@H]1CN(CCCC(=O)c3ccc(F)cc3)CC[C@@H]12 [ITI-007, 1-(4-fluoro-phenyl)-4-((6bR,10aS)-3-methyl-2,3,6b,9,10,10a-hexahydro-1H,7H-pyrido[3′,4′:4,5]pyrrolo[1,2,3-de]quinoxalin-8-yl)-butan-1-one]",binding,5-HT2C,negligible binding
same,binding,H1 histaminergic,negligible binding
same,X-ray Amorphous Solids?,[2],No
same,Tg > 75° C.,[3],No
same,binding,muscarinic receptors,negligible binding
same,solubility in water,[4],poor solubility
same,stability of solution,[5],rapidly discolor due to decomposition of the active
